# Source: patent US7034208B1, “Ahas inhibiting herbicide resistant wheat and method for selection thereof” (BASF Aktiengellschaft, priority 1991, dated 2006)
# Assays:
# [1] = tested on: AHAS (acetohydroxyacid synthase); test: AHAS Enzyme Assay I and II (M4 Plants); assay type: biochemical, wheat
# Method: Enzyme Extraction: For the extraction of AHAS, 10 grams of tissue are powdered in liquid nitrogen and then homogenized in 100 mM potassium phosphate buffer (pH 7.5) containing 10 mM pyruvate, 5 mM MgCl2, 5 uM EDTA, 100 uM FAD, 1 mM valine, 1 mM leucine, 10% glycerol, and 10 mM cysteine. The homogenate is filtered through a nylon cloth (53 uM mesh) and centrifuged at 25,000 g for 20 minutes. The supernatant fraction is brought to 50% saturation with respect to (NH4)2SO4 and allowed to stand for 20-30 minutes on ice. It is then centrifuged at 25,000 g for 20 minutes and the supernatant is discarded. The ammonium sulfate pellet is dissolved in 50 mM potassium phosphate buffer (pH 7.5) containing 1 mM EDTA and 100 mM NaCl and used for the assay procedures.
# AHAS Assay: AHAS activity is measured by estimation of the product, acetolactate, after conversion by decarboxylation in the presence of acid to acetoin. Standard reaction mixtures contain the enzyme in 50 mM potassium phosphate buffer (pH 7.0) containing 100 mM sodium pyruvate, 10 mM MgCl2, 1 mM thiamine pyrophosphate, and 10 uM FAD. This mixture is incubated at 37° C. for one hour after which time the reaction is stopped with the addition of […] to make a final concentration of 0.85% […] in the tube. The reaction product is allowed to decarboxylate at 60° C. for 15 minutes. The acetoin formed is determined by incubating with creatine (0.17%) and 1-napthol (1.7% in 4N NaOH) by the method of Westerfield (Westerfield, W. W., J. Biol. Chem., 161, 495-502 (1945)). Maximum color is observed by incubation at 60° C. for 15 minutes and then further incubation at room temperature for 15 minutes. The absorption of color complex is measured at 520 nm. Appropriate checks of direct acetoin formation during the enzyme assay are made. Each assay is run at least in duplicate and the experiments are repeated a minimum of two times.
# Herbicide Application: Two flats are planted with approximately 100 seeds of each wheat selection (FS1, FS2, and FS4) and Fidel in sterile Metro Mix 350. Ten days later, each flat is sprayed postemergence with 62.5 g/ha of PURSUIT™. The spray delivery rate is 400 L/ha with a belt speed of 8.2 sec/rev using nozzle #65015E. Tween 20™ is used as a surfactant at 0.25% v/v. The plants are harvested three days later and assayed for AHAS activity.
# Enzyme Extraction and AHAS Assay: As previously described.
# Herbicide Application: As described above (Enzyme Assay I) except that the spray delivery rate is 950 l/ha with a belt speed of 12.8 sec/rev using nozzle #40015E.
# [2] = tested on: wheat selections FS1-FS4 and Fidel; test: Field Trial I; assay type: in vivo; conditions: 100 g/ha postemergent, yields 10 weeks after treatment
# Method: A field study is conducted to evaluate the tolerance of the imidazolinone-resistant wheat selections, FS1-FS4, to postemergent applications of imidazolinone herbicides. The variety Fidel, from which these selections are derived, is included as a susceptible check. Because Fidel is a French winter wheat variety and unadapted to New Jersey, this test is intended to evaluate the relative effects of the herbicide treatments on grain yields rather than to measure actual yield potentials for the genotypes. Thus, yields are presented as grams/plot rather than bushels/acre or metric tons/ha.
# M4 bulked seed from parental lines, FS1, FS2, FS3 and FS4 and Fidel wild-type, is used in this field trial. The trial is planted in an incomplete split plot design with the main plot as herbicide-rate combination and the split plot as genotypes. […] The plots are three meters long and 1.5 meters wide (7 rows with 7 inch spacing between rows) with approximately 25 seed planted per row. There is a one meter space between wheat lines and ten meters between replicates.
# Treatments are applied at a rate of 400 L/ha with a tractor mounted sprayer. Tween 20™ is used as a surfactant at 0.25% v/v. Wheat is treated at the Z22 stage or approximately 6 inches tall. Plant height and damage ratings are taken at 3 and 6 weeks after treatment. Yields are taken 10 weeks after treatment.
# [3] = tested on: wheat selections FS2 and FS4 and Fidel; test: Postemergence Herbicide Tolerance, upper limits; assay type: in vivo; conditions: four weeks after treatment
# Source text: In this second greenhouse test, the upper limits of the mutant selections' resistance to postemergent applications of PURSUIT™ and Compound 2 are examined. M4 seed of two of the mutant selections, FS2 and FS4, and seed of Fidel are used in this experiment. Five seeds from each line are planted per pot in sterile Metro Mix 350™ in six inch Azalea pots. Immediately prior to herbicide treatment, these plants are thinned to three plants per pot. Three replicates are used per treatment (chemical & rate) for each line, and six replicates per wheat line are used as untreated controls. The plants are sprayed postemergence, 10 days after planting, with the following herbicides and rates (g/ha):
# The herbicides are applied as previously described. Plant height is measured immediately prior to spraying. Plant heights are also measured at two and four weeks after treatment, and shoot fresh weights measured at seven weeks after treatment.
# [4] = tested on: F1 hybrids FS1-FS4 x Fidel and Fidel wheat; test: Genetic Condition Studies Experiment 1, F1 hybrids sprayed; assay type: in vivo
# Source text: Experiment 1: Six flats containing Metro Mix 350™ are planted with F1 hybrids derived from each of the following crosses: FS1×Fidel: FS2×Fidel; FS3×Fidel; FS4×Fidel and Fidel (susceptible, parental cultivar). One week later, the flats are sprayed, one flat per herbicide rate, with PURSUIT™ at 50, 100, 150, 200, and 250 g/ha to determine the genetic condition of the herbicide resistant trait in the selections, FS1-FS4. The herbicide is applied with a laboratory belt sprayer at a rate of 950 L/ha with a belt speed of 12.5 sec/rev using sprayer nozzle #40015E. Tween 20™ is used as the surfactant at 0.25% v/v in the herbicide solutions. Plants are rated 10 days after herbicide treatment.
# [5] = tested on: wheat seeds; test: Seed soak screen (Example 1, Step 1, Experiments 1-4); assay type: in vivo
# Method: The seeds are rinsed in sterile distilled water and then soaked in a herbicide concentration for a set period of time, as described below. Sets of twenty-five seeds are placed into 25 ml of the herbicide solution described below in a sterile 100×15 mm plastic petri dish and soaked for the designated time. The seeds are rinsed with water, dried with paper towels and planted (25 seeds/flat) approximately ½″ deep in 6×8 inch peat flats containing a moist, sterile, artificial soil, Metro Mix 350™ (Grace Company, Cambridge, Mass.). The treatments are evaluated at four weeks after treatment. The herbicides, rates and time periods evaluated are described below:
# Each treatment is replicated four times.
# Each treatment is replicated two times.
# The protocol is as described above except that 35 seeds are soaked per petri dish; 25 seeds are still planted per flat. This experiment is repeated twice.
structure (smiles),measurement,setting,value
"CCc1cnc(C2=NC(C)(C(C)C)C(=O)N2)c(C(=O)O)c1 (stereo not drawn) [PURSUIT, 5-ethyl-2-(4-isopropyl-4-methyl-5-oxo-2-imidazolin-2-yl)-nicotinic acid]",resistance of AHAS activity to inhibition,"[1]; homozygous resistant mutant lines, unsprayed plants, compared to Fidel enzyme",moderate levels of resistance
same,resistance of AHAS activity to inhibition,"[1]; selections sprayed with 62.5 g/ha PURSUIT, compared to sprayed Fidel",significantly higher level of resistance
same,yield reduction,[2],35%
same,rates up to which FS2 and FS4 plant heights equal the untreated controls,[3],500-1000 g/ha
same,rate at which Fidel is killed,"[4]; Fidel, rated 10 days after treatment",150 g/ha
same,damage to Fidel,"[4]; Fidel, rates of 50 and 100 g/ha",severely injured
same,damage to F1 hybrids,"[4]; hybrids FS1-FS4 x Fidel, 250 g/ha, rated 10 days after treatment",stunted but not killed
same,concentration that prevents the survival of potential false positives,[5]; seed soak for 72 hours,1000 µM
same,concentration that prevents the survival of potential false positives,[5]; seed soak for 96 hours,750 µM
